{"source": "ChEMBL document CHEMBL1201862", "about": "“PubChem BioAssay data set” (2004)", "key": {"HEK293 [1]": {"tested_on": "HEK293", "test": "HEK cell cytotoxicity by LDH release, dose response, cytotoxicity control for IDE activator project, fluorescence, HEK cells (AID 588440);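 also: cytotoxicity by LDH release measuring loss of membrane integrity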", "format": "functional, cell-based", "conditions": "Homo sapiens"}, "HEK293 [2]": {"tested_on": "HEK293", "test": "optical interference in Abeta FP readout, dose response, artefact control for IDE activator project, biochemical, fluorescence polarization (AID 588442)", "format": "functional, cell-based", "conditions": "Homo sapiens"}, "[3]": {"test": "cytotoxicity in HEK-293T cells, dose response, cytotoxicity control for TCR NF-kB inhibitor project, luminescence, T-cell screen hits (AID 489026);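 also: cells exposed to compound about 14 hours before the viability readout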", "format": "functional, cell-based"}, "[4]": {"biological_target": "T1, Serine/threonine-protein phosphatase (Candida dubliniensis (strain CD36 / CBS 7987 / NCPF 3949 / NRRLY-17841) (Yeast), UniProt B9W6M3)", "T1 sequence (B9W6M3 whole entry)": "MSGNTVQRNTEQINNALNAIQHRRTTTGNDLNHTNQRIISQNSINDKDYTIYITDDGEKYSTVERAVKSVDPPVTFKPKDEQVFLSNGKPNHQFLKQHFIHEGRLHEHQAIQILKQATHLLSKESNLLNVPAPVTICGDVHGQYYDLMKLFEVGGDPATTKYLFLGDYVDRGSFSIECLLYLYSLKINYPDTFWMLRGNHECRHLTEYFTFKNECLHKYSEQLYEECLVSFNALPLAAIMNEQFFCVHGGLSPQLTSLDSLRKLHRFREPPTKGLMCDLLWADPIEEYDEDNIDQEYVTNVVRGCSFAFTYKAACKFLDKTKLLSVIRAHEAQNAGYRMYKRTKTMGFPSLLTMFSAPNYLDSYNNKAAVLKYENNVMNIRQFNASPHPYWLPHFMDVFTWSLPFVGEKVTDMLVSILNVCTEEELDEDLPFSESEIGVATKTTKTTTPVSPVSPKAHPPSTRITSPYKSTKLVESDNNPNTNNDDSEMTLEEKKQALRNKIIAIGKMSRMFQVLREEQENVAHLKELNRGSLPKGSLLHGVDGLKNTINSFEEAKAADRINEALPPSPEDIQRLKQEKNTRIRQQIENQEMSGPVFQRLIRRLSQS", "test": "calcineurin pathway inhibitors in yeast reporter, dose response, S. cerevisiae, CDRE-lacZ, luminescence, secondary (AID 2388);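 also: yeast reporter cells carrying a calcineurin-responsive lacZ construct stimulated with calcium chloride; luminescent beta-galactosidase reporter signal in whole cells rather than isolated phosphatase activity; potency for inhibition where a drop in reporter signal means calcineurin blockade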", "format": "functional, cell-based"}, "[5]": {"test": "inhibitors of intracellular T. cruzi replication, confirmation, NIH3T3 host cells, beta-gal luminescence (AID 2044);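 also: luminescent beta-galactosidase reporter signal from transgenic T. cruzi replicating inside host cells; inhibitors lower the luminescence signal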", "format": "functional, cell-based"}, "cells": {"test": "cells", "format": "functional, cell-based"}, "[6]": {"biological_target": "ATP-dependent molecular chaperone HSP82 (Candida albicans (strain WO-1) (Yeast), UniProt C4YTQ8)", "sequence (C4YTQ8 whole entry)": "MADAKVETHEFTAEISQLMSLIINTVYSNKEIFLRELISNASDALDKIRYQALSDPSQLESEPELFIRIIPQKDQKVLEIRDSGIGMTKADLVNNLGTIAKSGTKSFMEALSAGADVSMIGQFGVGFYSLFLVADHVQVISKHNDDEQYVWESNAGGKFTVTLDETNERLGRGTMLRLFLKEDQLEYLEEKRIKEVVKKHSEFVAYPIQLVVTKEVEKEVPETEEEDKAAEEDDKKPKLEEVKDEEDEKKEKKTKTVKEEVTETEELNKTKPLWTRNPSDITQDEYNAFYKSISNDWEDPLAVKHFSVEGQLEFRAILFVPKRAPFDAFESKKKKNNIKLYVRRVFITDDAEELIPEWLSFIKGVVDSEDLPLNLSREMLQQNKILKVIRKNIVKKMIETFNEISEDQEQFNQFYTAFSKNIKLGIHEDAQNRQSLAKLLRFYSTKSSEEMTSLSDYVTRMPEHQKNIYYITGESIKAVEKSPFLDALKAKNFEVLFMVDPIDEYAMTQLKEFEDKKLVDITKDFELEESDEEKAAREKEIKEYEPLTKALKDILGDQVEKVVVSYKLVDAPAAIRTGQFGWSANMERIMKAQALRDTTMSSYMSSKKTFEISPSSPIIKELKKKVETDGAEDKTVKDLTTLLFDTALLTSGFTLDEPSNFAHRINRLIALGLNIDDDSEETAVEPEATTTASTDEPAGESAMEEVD", "test": "loss of DOC-induced GRE-beta-galactosidase reporter signal, dose response, Hsp90 inhibitor project, S. cerevisiae, luminescence (AID 2400);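 also: beta-galactosidase luminescence from glucocorticoid response element reporter as proxy for Hsp90 function; inhibitor potency where signal loss means Hsp90 inhibition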", "format": "functional, cell-based"}, "[7]": {"test": "cytotoxicity toward NIH3T3 fibroblasts, dose response, counter-screen, cell-based, ATP luminescence, mouse fibroblasts (AID 2010);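 also: cells exposed to compound for about 90 hours before reading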", "format": "functional"}, "Cysteine protease ATG4B [8]": {"biological_target": "T2, Cysteine protease ATG4B (Homo sapiens, UniProt Q9Y4P1)", "T2 sequence (Q9Y4P1 whole entry)": "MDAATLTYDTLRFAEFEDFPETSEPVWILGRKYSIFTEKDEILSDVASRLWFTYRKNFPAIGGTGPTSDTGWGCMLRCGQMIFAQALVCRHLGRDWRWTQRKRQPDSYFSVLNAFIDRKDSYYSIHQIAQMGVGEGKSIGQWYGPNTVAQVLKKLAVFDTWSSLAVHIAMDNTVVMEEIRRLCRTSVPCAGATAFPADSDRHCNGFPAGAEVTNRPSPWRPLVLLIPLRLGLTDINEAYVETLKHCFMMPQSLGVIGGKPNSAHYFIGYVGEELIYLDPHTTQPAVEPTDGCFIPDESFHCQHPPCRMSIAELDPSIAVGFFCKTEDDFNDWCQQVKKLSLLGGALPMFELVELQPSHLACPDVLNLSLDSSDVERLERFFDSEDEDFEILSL", "format": "functional"}, "Cysteine protease ATG4B [9]": {"biological_target": "T2, Cysteine protease ATG4B", "test": "ATG4B protease inhibitors, dose response, biochemical, fluorescence, set 2 (AID 588584)", "format": "functional"}, "[10]": {"test": "inhibitors of SNCA 5'UTR-driven reporter translation, confirmation, H4 neuroglioma cells, luminescence (AID 1988)", "format": "functional, cell-based"}, "[11]": {"biological_target": "T3, Apoptotic protease-activating factor 1 (Homo sapiens, UniProt O14727)", "T3 sequence (O14727 whole entry)": "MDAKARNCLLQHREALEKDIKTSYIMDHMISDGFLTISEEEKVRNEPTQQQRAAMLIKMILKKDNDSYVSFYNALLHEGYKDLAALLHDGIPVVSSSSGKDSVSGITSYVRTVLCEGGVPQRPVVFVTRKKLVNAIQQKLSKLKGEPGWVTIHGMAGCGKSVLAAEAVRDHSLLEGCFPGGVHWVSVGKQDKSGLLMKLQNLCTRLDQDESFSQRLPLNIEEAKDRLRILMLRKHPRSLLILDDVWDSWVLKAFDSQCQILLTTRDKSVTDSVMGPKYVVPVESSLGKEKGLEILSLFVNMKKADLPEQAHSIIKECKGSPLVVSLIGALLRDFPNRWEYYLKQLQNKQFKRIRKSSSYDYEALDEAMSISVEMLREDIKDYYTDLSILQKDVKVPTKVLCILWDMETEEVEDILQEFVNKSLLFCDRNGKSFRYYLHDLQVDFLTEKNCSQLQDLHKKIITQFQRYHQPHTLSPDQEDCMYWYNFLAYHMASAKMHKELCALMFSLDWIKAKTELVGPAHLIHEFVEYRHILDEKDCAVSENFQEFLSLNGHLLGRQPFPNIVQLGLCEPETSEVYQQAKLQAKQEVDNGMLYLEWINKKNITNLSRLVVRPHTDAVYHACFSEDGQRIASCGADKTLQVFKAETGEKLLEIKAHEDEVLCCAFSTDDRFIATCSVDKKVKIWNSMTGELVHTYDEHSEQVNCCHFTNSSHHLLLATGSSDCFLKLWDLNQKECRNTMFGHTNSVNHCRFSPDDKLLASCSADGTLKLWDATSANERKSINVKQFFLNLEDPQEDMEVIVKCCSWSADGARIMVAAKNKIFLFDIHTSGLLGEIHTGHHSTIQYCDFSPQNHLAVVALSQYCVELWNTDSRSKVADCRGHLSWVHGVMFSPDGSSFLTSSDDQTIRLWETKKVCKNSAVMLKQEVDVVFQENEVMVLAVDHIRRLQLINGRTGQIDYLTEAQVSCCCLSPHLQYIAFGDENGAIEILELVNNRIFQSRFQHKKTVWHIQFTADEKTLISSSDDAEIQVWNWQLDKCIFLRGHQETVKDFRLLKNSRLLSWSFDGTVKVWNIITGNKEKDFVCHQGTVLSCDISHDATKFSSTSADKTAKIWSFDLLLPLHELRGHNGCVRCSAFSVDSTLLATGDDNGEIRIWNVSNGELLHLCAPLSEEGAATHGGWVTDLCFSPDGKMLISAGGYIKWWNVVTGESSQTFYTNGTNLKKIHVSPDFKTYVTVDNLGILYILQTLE", "format": "functional"}, "[12]": {"biological_target": "Bifunctional protein GlmU (Mycobacterium tuberculosis, UniProt P9WMN3)", "sequence (P9WMN3 whole entry)": "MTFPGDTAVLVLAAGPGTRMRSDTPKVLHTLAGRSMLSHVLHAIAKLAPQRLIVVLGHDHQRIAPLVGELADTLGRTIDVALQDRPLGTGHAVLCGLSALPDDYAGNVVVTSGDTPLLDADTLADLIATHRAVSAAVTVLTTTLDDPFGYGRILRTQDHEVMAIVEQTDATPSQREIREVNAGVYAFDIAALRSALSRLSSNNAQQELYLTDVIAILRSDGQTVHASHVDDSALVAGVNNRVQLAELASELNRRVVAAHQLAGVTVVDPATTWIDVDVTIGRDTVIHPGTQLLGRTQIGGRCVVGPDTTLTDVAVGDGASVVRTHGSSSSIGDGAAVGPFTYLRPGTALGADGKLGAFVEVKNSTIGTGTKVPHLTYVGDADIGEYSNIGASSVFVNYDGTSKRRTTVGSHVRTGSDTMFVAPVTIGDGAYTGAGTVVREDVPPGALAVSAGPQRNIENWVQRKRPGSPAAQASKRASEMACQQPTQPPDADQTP", "test": "Inhibitors of Mycobacterial Glucosamine-1-phosphate acetyl transferase (GlmU). Secondary screen.", "parameters": "species or system Mycobacterium tuberculosis H37Rv"}}, "note": "The source made the active and inactive calls."}
{"smiles": "O=C1CCN2C=Nc3cccc4ccc1c2c34", "values": [{"measurement": "IC50", "setting": "HEK293 [1]", "value": "> 89.2 µM (inactive)"}, {"measurement": "EC50", "setting": "HEK293 [2]", "value": "17 µM (inactive)"}]}
{"smiles": "Oc1ccc2ccccc2c1/C=N/Nc1nnc(-c2ncc[nH]2)c2ccccc12", "values": [{"measurement": "IC50", "setting": "[3]", "value": "> 80 µM (inactive)"}, {"measurement": "EC50", "setting": "[4]", "value": "> 180 µM (inactive)"}, {"measurement": "EC50", "setting": "[5]", "value": "0.412 µM (active)"}, {"measurement": "EC50", "setting": "cells", "value": "> 350 µM (not active)"}, {"measurement": "EC50", "setting": "[6]", "value": "3.23 µM (active)"}, {"measurement": "EC50", "setting": "[7]", "value": "< 6 µM (inconclusive)"}, {"measurement": "IC50", "setting": "Cysteine protease ATG4B [8]", "value": "2.53 µM (active)"}, {"measurement": "IC50", "setting": "Cysteine protease ATG4B [9]", "value": "5.4 µM (active)"}, {"measurement": "EC50", "setting": "[10]", "value": "0.224 µM (active)"}]}
{"smiles": "CC(C)C(C(=O)O)N1C(=O)/C(=C/C=C/c2ccco2)SC1=S", "note": "(stereo not drawn)", "values": [{"measurement": "IC50", "setting": "[11]", "value": "> 100 µM (inactive)"}, {"measurement": "IC50", "setting": "[12]", "value": "47.9 µM (active)"}]}
